Laboratory results as given in patent US20130040908A1, “SUBSTITUTION DERIVATIVES OF N6-BENZYLADENOSINE-5' -MONOPHOSPHATE, METHODS OF PREPARATION THEREOF, USE THEREOF AS MEDICAMENTS, AND THERAPEUTIC PREPARATIONS CONTAINING THESE COMPOUNDS” (BIOAPEX, S.R.O., priority 2010, published 2013).

Columns and labels:
p21^WAF-1 = assay: p21WAF-1 induction in MCF-7 cells (immunoblot); format: cell-based; conditions: MCF-7, 0-100 μM 12 hours; 1 μM 0.5-24 hours
Description: MCF-7 cells cultured at 37° C. in 5% CO2 atmosphere in DMEM medium supplemented with 10% foetal calf serum were treated with compound 28 concentration ranges of 0-100 μM. Compound 28 was added into the medium from the 100 mM stock solution in DMSO. Cells were harvested 12 hours after incubation with compound 28, centrifuged (1000 rpm, 4° C., 5 min), washed twice by ice-cold PBS and re-centrifuged. These washed cells were then lysed by 1×CSB (loading buffer for SDS-PAGE, i.e. electrophoresis of proteins in polyacrylamide gel containing SDS). Cell lysate proteins were separated by SDS-PAGE and transferred onto a nitrocelulose (NC) membrane. NC membrane was blocked by 5% skimmed milk, 0.1% Tween 20 in PBS. Protein level of p21^WAF-1 and actin (as a loaded protein volume control) were detected immunochemically using commercially available specific monoclonal antibodies anti-p21^WAF-1 (Ab-1, Calbiochem) and anti-Actin (Clone AC-40, Sigma-Aldrich). The primary antibodies bind to target proteins were detected using rabbit secondary peroxidase-labeled antibody (RAM-Px, DAKO), followed by chemiluminiscence (ECL, Amersham-Pharmacia).

Human lymphocytes = assay: Immunosuppressive activity, 3H-thymidine incorporation in concanavalin A activated lymphocytes; format: cell-based; conditions: 72 hours, [3H]-TdR
Text: One of the most important parameters of specific cellular immunity is the proliferative response of lymphocytes to antigens or polyclonal mitogens. The majority of normal mammalian peripheral lymphocytes comprise resting cells. Antigens or nonspecific polyclonal mitogens have the capacity to activate lymphoid cells and this is accompanied by dramatic changes of intracellular metabolism (mitochondrial activity, protein synthesis, nucleic acids synthesis, formation of blastic cells and cellular proliferation). […] Variety of in vitro assays was developed to measure proliferative response of lymphocytes. The most commonly used is ^3H-thymidine incorporation method.
During cell proliferation, DNA has to be replicated before the cell is divided into two daughter cells. This close association between cell doublings and DNA synthesis is very attractive for assessing cell proliferation. If labelled DNA precursors are added to the cell culture, cells that are about to divide incorporate the labelled nucleotide into their DNA. Traditionally, those assays usually involve the use of radiolabelled nucleosides, particularly tritiated thymidine ([^3H]-TdR). The amount of [^3H]-TdR incorporated into the cellular DNA is quantified by liquid scintillation counting. Human heparinized peripheral blood was obtained from healthy volunteers by cubital vein punction. The blood was diluted in PBS (1:3) and mononuclear cells were separated by centrifugation in Ficoll-Hypaque density gradient (Pharmacia, 1.077 g/ml) at 2200 rpm for 30 minutes. Following centrifugation, lymphocytes were washed in PBS and resuspended in cell culture medium (RMPI 1640, 2 mM glutamine, 100 U/ml penicillin, 100 μg/ml streptomycin, 10% fetal calf serum and sodium bicarbonate).
The cells were diluted at target density of 1.100.000 cells/ml and were added by pipette (180 μl) into 96-well microtiter plates. Four-fold dilutions of the intended test concentration were added at time zero in 20 μl aliquots to the microtiter plate wells. Usually, test compound was evaluated at six 4-fold dilutions. In routine testing, the highest well concentration was 266.7 μM. All drug concentrations were examined in duplicates. All wells with exception of unstimulated controls were activated with 50 of concanavalin A (25 μg/ml). Incubations of cells with test compounds lasted for 72 hours at 37° C., in 5% CO2 atmosphere and 100% humidity. At the end of incubation period, the cells were assayed by using the [^3H]-TdR:
Cell cultures were incubated with 0.5 μCi (20 μl of stock solution 500 μCi/ml per well for 6 hours at 37° C. and 5% CO2. The automated cell harvester was used to lyse cells in water and adsorb the DNA onto glass-fiber filters in the format of microtiter plate. The DNA incorporated [^3H]-TdR was retained on the filter while unincorporated material passes through. The filters were dried at room temperature overnight, sealed into a sample bag with 10-12 ml of scintillant. The amount of [^3H]-TdR present in each filter (in cpm) was determined by scintillation counting in a Betaplate liquid scintillation counter. The effective dose of immunosuppressant (ED) was calculated using the following equation: ED=(CCPMdrug exposed well/mean CCPMcontrol wells)×100%. The ED50 value, the drug concentration inhibiting proliferation of 50% of lymphocytes, was calculated from the obtained dose response curves.

Question: Which results are given for `COc1cccc(CNc2ncnc3c2ncn3[C@@H]2O[C@H](COP(=O)(O)O)[C@@H](O)[C@H]2O)c1O` [Compound 28, 6-(2-hydroxy-3-methoxybenzylamino)purine riboside-5′-monophosphate]?
Answer: p21^WAF-1 protein induction (p21^WAF-1): efficient p21^WAF-1 protein induction; Human lymphocytes ED50 (Human lymphocytes): 1200 nM
